Results on 2 compounds are retold here after ChEMBL document CHEMBL5579877, “Design and Evaluation of 3-Phenyloxetane Derivative Agonists of the Glucagon-Like Peptide-1 Receptor” (J Med Chem, 2024).

Activity calls are given as the source filed them. The rule behind the calls is not given here.

Data set [1] can be described thus: Metabolic stability in human liver microsomes assessed as half life at […] incubated upto 45 mins in presence of NADPH by LC-MS/MS analysis. Type of data set: ADME, Microsome. On the technique in general: Microsomes from liver hold many membrane-bound enzymes, among them those of drug oxidation.
Data set [2] is described as follows: Permeability across basolateral to apical side in human Caco-2 cells at 10 uM incubated for 120 mins by LC-MS/MS analysis. The settings on record: read-out: permeability. Type of data set: ADME, cell-based. A general note: Caco-2 monolayers are a common model of the intestinal barrier.
Data set [3] is described as follows: Cmax in cynomolgus monkey at 2 mg/kg, iv. In kind it is ADME, organism-based, Macaca fascicularis. The settings on record: in vivo.
Data set [4] in a line: Tmax in cynomolgus monkey at 2 mg/kg, iv. In kind it is ADME, organism-based, Macaca fascicularis. The settings on record: in vivo.
Data set [5] can be described thus: Oral clearance in ICR mouse at 5 mg/kg, po by LC-MS/MS analysis. Type of data set: ADME, organism-based. The settings on record: in vivo.
A short description of data set [6]: Half-life in ICR mouse at 5 mg/kg, po by LC-MS/MS analysis. The settings on record: in vivo. In kind it is ADME, organism-based.
Data set [7] can be described thus: Cmax in ICR mouse at 5 mg/kg, po by LC-MS/MS analysis. In kind it is ADME, organism-based. The settings on record: in vivo.
The target in another data set is T1, Cytochrome P450 2C8 (Homo sapiens, UniProt P10632).
T1 sequence (P10632 whole entry): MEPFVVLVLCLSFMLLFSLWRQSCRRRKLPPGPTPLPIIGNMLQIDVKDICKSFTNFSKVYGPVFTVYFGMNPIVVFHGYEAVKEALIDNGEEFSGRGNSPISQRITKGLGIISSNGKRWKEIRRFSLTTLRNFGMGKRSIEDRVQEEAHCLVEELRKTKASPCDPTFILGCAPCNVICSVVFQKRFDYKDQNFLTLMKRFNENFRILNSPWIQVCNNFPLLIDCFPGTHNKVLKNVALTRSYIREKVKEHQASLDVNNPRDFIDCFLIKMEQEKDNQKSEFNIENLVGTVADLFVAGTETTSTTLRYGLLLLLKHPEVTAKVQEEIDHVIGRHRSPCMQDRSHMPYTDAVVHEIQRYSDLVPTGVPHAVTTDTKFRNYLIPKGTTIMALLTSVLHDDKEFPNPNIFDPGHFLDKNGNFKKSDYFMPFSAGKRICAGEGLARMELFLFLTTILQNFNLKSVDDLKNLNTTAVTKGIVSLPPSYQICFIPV
Kind of data set: Inhibition of CYP2C8 in human liver microsomes using paclitaxel as substrate preincubated for 5 mins followed by NADPH addition and measured after 20 mins by LC-MS/MS analysis. In kind it is ADME, Microsome.

Another data set concerns the target Cytochrome P450 2C19 (Homo sapiens, UniProt P33261). Kind of data set: Inhibition of CYP2C19 in human liver microsomes using S-mephenytoin as substrate preincubated for 5 mins followed by NADPH addition and measured after 45 mins by LC-MS/MS analysis. Type of data set: ADME, Microsome.
Data set [8] in a line: AUC in ICR mouse at 2 mg/kg, iv by LC-MS/MS analysis. The settings on record: in vivo. In kind it is ADME, organism-based.
For a further data set, the target named is Cytochrome P450 2D6 (Homo sapiens, UniProt P10635). Briefly: Inhibition of CYP2D6 in human liver microsomes using dextromethorphan as substrate preincubated for 5 mins followed by NADPH addition and measured after 20 mins by LC-MS/MS analysis. In kind it is ADME, Microsome.
Cytochrome P450 2D6, sequence (P10635 whole entry): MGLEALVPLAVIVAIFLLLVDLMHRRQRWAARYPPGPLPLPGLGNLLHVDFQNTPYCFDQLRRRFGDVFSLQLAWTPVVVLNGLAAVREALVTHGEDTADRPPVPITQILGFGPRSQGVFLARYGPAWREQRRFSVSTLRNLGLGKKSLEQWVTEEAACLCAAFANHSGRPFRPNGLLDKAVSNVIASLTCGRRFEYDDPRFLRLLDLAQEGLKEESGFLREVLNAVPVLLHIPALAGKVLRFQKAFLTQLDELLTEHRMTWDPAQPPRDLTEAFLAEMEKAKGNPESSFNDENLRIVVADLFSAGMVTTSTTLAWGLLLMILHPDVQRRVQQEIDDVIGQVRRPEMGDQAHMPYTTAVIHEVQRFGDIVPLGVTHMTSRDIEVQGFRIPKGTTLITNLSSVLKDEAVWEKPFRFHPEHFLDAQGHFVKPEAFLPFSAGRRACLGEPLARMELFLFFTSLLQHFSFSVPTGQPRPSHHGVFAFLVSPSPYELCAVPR
The target in the next data set is Cytochrome P450 2C9 (Homo sapiens, UniProt P11712). Kind of data set: Inhibition of CYP2C9 in human liver microsomes using diclofenac as substrate preincubated for 5 mins followed by NADPH addition and measured after 10 mins by LC-MS/MS analysis. Type of data set: ADME, Microsome.
Cytochrome P450 2C9, sequence (P11712 whole entry): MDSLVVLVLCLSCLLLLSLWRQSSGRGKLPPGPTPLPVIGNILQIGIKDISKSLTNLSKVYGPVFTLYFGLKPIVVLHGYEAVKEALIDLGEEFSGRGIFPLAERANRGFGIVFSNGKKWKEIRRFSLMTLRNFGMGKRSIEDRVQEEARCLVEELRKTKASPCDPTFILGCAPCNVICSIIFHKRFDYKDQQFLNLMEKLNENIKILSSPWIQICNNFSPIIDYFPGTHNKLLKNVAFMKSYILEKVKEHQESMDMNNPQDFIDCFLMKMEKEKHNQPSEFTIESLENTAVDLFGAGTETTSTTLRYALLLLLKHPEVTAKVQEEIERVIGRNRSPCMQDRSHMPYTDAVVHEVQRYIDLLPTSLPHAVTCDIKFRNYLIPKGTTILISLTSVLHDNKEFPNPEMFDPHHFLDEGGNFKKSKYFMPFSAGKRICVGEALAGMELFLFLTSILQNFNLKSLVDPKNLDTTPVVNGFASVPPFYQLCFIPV
Data set [9] is described as follows: Permeability across apical to basolateral in human Caco-2 cells at 10 uM incubated for 120 mins by LC-MS/MS analysis. Type of data set: ADME, cell-based. The settings on record: read-out: permeability.
The target in data set [10] is T2, Cytochrome P450 3A4 (Homo sapiens, UniProt P08684). Kind of data set: Inhibition of CYP3A4 in human liver microsomes using testosterone as substrate preincubated for 5 mins followed by NADPH addition and measured after 5 mins by LC-MS/MS analysis. In kind it is ADME, Microsome.
T2 sequence (P08684 whole entry): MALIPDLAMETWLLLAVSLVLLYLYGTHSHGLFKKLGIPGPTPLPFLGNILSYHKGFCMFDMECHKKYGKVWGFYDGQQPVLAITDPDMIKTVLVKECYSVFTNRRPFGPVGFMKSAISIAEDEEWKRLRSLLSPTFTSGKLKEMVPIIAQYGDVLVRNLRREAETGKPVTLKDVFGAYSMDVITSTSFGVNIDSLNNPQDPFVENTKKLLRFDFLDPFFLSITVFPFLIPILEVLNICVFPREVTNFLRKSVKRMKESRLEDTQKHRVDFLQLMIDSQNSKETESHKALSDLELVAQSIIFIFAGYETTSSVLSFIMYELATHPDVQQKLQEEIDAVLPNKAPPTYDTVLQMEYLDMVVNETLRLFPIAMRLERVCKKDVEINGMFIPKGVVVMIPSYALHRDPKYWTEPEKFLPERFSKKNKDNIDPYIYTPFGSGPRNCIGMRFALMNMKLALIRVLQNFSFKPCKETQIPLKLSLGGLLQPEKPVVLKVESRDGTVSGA
Data set [11] is described as follows: AUC in ICR mouse at 5 mg/kg, po by LC-MS/MS analysis. Type of data set: ADME, organism-based. The settings on record: in vivo.
The next data set has as its target T3, Cytochrome P450 2B6 (Homo sapiens, UniProt P20813).
T3 sequence (P20813 whole entry): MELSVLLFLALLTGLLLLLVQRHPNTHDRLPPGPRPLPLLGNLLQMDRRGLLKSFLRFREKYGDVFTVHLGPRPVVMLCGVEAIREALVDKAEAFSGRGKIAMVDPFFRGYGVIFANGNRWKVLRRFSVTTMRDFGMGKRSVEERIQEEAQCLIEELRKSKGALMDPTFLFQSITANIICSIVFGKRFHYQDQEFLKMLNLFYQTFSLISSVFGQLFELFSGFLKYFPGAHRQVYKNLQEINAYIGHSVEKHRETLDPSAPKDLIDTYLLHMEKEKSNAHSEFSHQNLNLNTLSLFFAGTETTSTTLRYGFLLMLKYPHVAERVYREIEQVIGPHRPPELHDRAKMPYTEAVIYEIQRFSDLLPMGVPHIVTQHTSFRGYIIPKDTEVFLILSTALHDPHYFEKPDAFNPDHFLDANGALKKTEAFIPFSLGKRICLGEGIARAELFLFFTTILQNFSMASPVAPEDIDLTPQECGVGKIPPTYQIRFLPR
Kind of data set: Inhibition of CYP2B6 in human liver microsomes using bupropion as substrate preincubated for 5 mins followed by NADPH addition and measured after 10 mins by LC-MS/MS analysis. In kind it is ADME, Microsome.

For the next data set, the system named is Mus musculus. Kind of data set: Reduction in blood glucose level in human GLP-1R knock-in mouse at 1 mg/kg, po pretreated for 1 to 4 hrs followed by glucose addition and measured upto 120 mins by glucose meter. In kind it is functional, organism-based. The settings on record: time 180-360 min.
Data set [12] is described as follows: Oral clearance in rat at 5 mg/kg, po by LC-MS/MS analysis. Type of data set: ADME, organism-based. The settings on record: in vivo.
Data set [13] in a line: Half-life in rat at 2 mg/kg, iv by LC-MS/MS analysis. Type of data set: ADME, organism-based. The settings on record: in vivo.
The nature of data set [14]: Half-life in rat at 5 mg/kg, po by LC-MS/MS analysis. The settings on record: in vivo. Type of data set: ADME, organism-based.
The target in data set [15] is T2, Cytochrome P450 3A4. Kind of data set: Inhibition of CYP3A4 in human liver microsomes using midazolam as substrate preincubated for 5 mins followed by NADPH addition and measured after 5 mins by LC-MS/MS analysis. In kind it is ADME, Microsome.
The nature of data set [16]: AUC in rat at 5 mg/kg, po by LC-MS/MS analysis. The settings on record: in vivo. In kind it is ADME, organism-based.

Cytochrome P450 2C19, sequence (P33261 whole entry): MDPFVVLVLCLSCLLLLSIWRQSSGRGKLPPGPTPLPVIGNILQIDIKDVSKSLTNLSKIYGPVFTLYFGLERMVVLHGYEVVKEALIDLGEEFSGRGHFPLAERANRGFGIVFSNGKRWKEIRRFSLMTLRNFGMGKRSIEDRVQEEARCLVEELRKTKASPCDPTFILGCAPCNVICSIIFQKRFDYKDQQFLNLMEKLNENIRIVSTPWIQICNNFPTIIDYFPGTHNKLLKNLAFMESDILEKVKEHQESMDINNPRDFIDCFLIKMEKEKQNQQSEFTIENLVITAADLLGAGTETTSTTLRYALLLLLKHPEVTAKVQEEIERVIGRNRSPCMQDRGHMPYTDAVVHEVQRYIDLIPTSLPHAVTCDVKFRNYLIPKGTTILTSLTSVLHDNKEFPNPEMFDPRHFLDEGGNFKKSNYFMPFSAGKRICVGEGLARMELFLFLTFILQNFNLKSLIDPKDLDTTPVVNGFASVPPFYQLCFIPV

One may read the half-life as how long it takes for the measured level to halve. A word on the Cmax: it is the peak of the concentration-time curve. Usually Tmax stands for the time at which the peak concentration occurs. The CL/F is clearance divided by bioavailability, as obtained after extravascular dosing. In general, IC50 refers to the midpoint of a concentration-inhibition curve. For orientation: AUC means the area under the concentration-time curve, a measure of exposure. On to `N#Cc1ccc(COc2cccc(C3CCN(Cc4nc5ccc(C(=O)O)cc5n4C[C@@H]4CCO4)CC3)n2)c(F)c1` [DANUGLIPRON], for which the half-life was 1.87 h in data set [1], 1.62 h in data set [6], 0.32 h in data set [13] and 1.33 h in data set [14]. Also, the Papp B→A at 2 h, 10 µM in data set [2] turned out to be 21.7 ×10⁻⁶ cm/s. Besides, the maximum concentration (Cmax) in data set [3] came to 670 nM; in [7] it was 2840 ng/mL. In addition, the Tmax in data set [4] amounted to 1.21 h. Besides, the results for the CL/F in [5] and in [12] were 36.5 mL/min/kg and 554 mL/min/kg, respectively. Besides, the IC50 against Cytochrome P450 2C8 was 1.25 µM; against Cytochrome P450 2C19, over 10 µM; at Cytochrome P450 2D6, over 10 µM; on Cytochrome P450 2C9, over 10 µM; against Cytochrome P450 3A4 [10], over 10 µM; at Cytochrome P450 2B6, over 10 µM. Moreover, the IC50 at Cytochrome P450 3A4 [15] is over 10 µM. The AUC in data set [8] stood at 1670 ng·h/mL; in data set [11], 2280 ng·h/mL; in data set [16], 170 ng·h/mL. In data set [9], the Papp A→B at 2 h, 10 µM came out at 3.93 ×10⁻⁶ cm/s. In addition, the outcome with Mus musculus was Active.
Take `O=C(O)c1ccc2nc(CN3CCC(c4cccc(OCc5ccc(C6COC6)cc5F)n4)CC3)n(C[C@@H]3CCO3)c2c1`: the half-life in [1] is 2.17 h; in data set [6], 3.86 h; in [13], 0.21 h; in data set [14], 0.84 h. Besides, the Papp B→A at 2 h, 10 µM in data set [2] worked out at 16.5 ×10⁻⁶ cm/s. Further, the Cmax in data set [3] came to 207 nM; in data set [7], 2090 ng/mL. Further, in data set [4], the Tmax came to 1.39 h. Moreover, the CL/F was 41.8 mL/min/kg in data set [5] and 52.8 mL/min/kg in data set [12]. Moreover, the concentration for half-maximal inhibition (IC50) at Cytochrome P450 2C8 was 0.22 µM; at Cytochrome P450 2C19, over 10 µM; against Cytochrome P450 2D6, over 10 µM; against Cytochrome P450 2C9, over 10 µM; against Cytochrome P450 3A4 [10] it was over 10 µM; against Cytochrome P450 2B6, over 10 µM. Moreover, on Cytochrome P450 3A4 [15], the IC50 was over 10 µM. The AUC in [8] is 1670 ng·h/mL; in data set [11], 3000 ng·h/mL; in [16] it was 180 ng·h/mL. Also, in [9], the Papp A→B at 2 h, 10 µM was found to be 3.14 ×10⁻⁶ cm/s. Besides, in the data set with Mus musculus, the result was Active.
